Experimental findings from PMC6044894 (ACS Omega, 2017) are described below.

Numbered stars: 1 amine (or outer) side, 2 acyl side, 3 side chain; on linkers, the order of the positions; unused ones are H or OH. Bridge positions count the residues as written; N and C are the ends. Peptide text beside a SMILES is read from it. I, II: the chains in the order shown. * marks the point of attachment. Suberoyl = O=C(CCCCCCC(=O)[*:2])[*:1]; Octanoyl = CCCCCCCC(=O)* Where only a bound is given, the exact number is not on record here.

Assay [1] concerns the target T1, Y4R (Homo sapiens, UniProt P50391). As to the kind of experiment: Aequorin calcium mobilization assay on CHO-hY4-Gqi5-mtAEQ cells. The following applies: for aequorin assay intrinsic activity α: relative to 1 μM hPP (α = 1.0). It counts as cell-based. A general note: Calcium flux is commonly read through the fluorescence of an indicator in the cells.
The target in assay [2] is T2, Y1R (Homo sapiens, UniProt P25929).
T2 sequence (P25929 1-384): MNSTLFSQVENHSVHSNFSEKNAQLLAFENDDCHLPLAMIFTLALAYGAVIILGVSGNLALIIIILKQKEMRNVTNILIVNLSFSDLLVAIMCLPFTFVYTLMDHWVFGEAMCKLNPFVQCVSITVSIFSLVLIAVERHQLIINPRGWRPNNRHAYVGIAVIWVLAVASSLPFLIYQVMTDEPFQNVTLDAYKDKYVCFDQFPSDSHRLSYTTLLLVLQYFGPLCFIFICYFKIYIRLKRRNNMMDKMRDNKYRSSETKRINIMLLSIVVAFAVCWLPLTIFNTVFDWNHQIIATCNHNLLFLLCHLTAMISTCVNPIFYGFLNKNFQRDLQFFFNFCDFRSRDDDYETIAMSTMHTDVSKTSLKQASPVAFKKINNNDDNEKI
As to the kind of experiment: Radioligand competition binding assay at Y1R with 46 using MCF-7-hY1 cells.

The target of assay [3] is T3, Y2R (Homo sapiens, UniProt P49146).
T3 sequence (P49146 1-381): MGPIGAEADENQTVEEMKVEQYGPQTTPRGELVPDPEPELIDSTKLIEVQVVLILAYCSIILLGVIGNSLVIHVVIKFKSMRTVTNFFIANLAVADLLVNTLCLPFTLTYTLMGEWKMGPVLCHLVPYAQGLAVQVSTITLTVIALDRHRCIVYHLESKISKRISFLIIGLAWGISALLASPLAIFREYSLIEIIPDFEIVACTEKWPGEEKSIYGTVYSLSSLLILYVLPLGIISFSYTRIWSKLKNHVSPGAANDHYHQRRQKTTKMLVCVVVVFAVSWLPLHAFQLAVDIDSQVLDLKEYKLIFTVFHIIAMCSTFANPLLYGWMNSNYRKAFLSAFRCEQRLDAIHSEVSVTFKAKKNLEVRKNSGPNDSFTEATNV
It counts as binding.

In assay [4] the target is T1, Y4R. The assay is described as follows: biochemical. It counts as binding.
Assay [5] concerns the target T4, Y5R (Homo sapiens, UniProt Q15761).
T4 sequence (Q15761 1-445): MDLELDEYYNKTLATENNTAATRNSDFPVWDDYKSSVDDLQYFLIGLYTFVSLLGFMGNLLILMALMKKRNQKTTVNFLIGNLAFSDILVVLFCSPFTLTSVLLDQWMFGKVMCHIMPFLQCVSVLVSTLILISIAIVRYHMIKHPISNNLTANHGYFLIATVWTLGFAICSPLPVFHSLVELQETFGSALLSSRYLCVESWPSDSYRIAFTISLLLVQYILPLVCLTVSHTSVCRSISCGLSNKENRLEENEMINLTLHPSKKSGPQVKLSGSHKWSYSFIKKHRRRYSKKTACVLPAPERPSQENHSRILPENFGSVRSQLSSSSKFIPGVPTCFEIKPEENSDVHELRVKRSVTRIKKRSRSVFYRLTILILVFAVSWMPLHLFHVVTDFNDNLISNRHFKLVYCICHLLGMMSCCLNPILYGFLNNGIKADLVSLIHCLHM
It is filed as binding.

The target in assay [6] is T1, Y4R. The assay is described as follows: β-Arrestin 1 recruitment assay on HEK293T-ARRB1-Y4R cells. It counts as cell-based. Conditions: for β-arrestin 1 assay intrinsic activity α: relative to 1 μM hPP (α = 1.0). Background: Arrestin recruitment assays detect the binding of arrestin to an activated receptor.
The target of assay [7] is T1, Y4R. The assay is described as follows: β-Arrestin 2 recruitment assay on HEK293T-ARRB2-Y4R cells. It is filed as cell-based. Conditions: for β-arrestin 2 assay intrinsic activity α: relative to 1 μM hPP (α = 1.0).

T1 sequence (P50391 whole entry): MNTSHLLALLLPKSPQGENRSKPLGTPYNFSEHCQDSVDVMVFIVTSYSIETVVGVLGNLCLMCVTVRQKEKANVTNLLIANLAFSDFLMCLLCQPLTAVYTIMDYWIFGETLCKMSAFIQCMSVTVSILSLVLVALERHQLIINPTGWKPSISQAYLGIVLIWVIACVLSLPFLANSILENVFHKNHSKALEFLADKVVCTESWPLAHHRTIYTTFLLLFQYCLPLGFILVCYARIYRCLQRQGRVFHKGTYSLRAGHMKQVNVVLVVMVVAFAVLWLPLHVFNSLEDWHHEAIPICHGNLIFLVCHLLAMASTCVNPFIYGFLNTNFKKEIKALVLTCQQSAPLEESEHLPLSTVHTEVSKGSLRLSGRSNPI

Consider `CC(C)C[C@H](NC(=O)[C@H](CCCNC(=N)N)NC(=O)[C@H](Cc1ccc(O)cc1)NC(=O)CCCCCCC(=O)N[C@@H](Cc1ccc(O)cc1)C(=O)N[C@@H](CCCNC(=N)N)C(=O)N[C@@H](CC(C)C)C(=O)N[C@@H](CCCNC(=N)N)C(=O)N[C@@H](Cc1ccc(O)cc1)C(N)=O)C(=O)N[C@@H](CCCNC(=N)N)C(=O)N[C@@H](Cc1ccc(O)cc1)C(N)=O` [Compound 2, octanedioyl-bis(Tyr-Arg-Leu-Arg-Tyr-amide), reference compound] (I: YRLRY-NH2 / II: YRLRY-NH2; linker I:N-II:N via Suberoyl), for which, in assay [1], the “aequorin assay intrinsic activity α” value is recorded as 0.73.
Consider `CCCCCCCC(=O)N[C@@H](Cc1ccc(O)cc1)C(=O)N[C@@H](CCCNC(=N)N)C(=O)N[C@@H](CC(C)C)C(=O)N[C@@H](CCCNC(=N)N)C(=O)N[C@@H](Cc1ccc(O)cc1)C(N)=O` [Compound 33, Octanoyl-Tyr-Arg-Leu-Arg-Tyr-amide Bis(hydrotrifluoroacetate)] (Octanoyl-YRLRY-NH2), for which the Ki (as a rule, the dissociation constant of the complex between target and ligand, obtained from inhibition or displacement) in assay [2] is 589 ± 120 nM; in assay [3], over 5000 nM; in assay [4], 56.9 ± 5.3 nM; in assay [5], 3440 ± 210 nM. Also, the “increase in Y4R affinity compared to parent compound 3” value in assay [4] (ratio of Ki values) is recorded as “almost six”. Moreover, the EC50 (commonly the midpoint of the concentration-response curve) came out at 2050 ± 84 nM in assay [1], 2200 ± 130 nM in assay [6] and 1790 ± 1070 nM in assay [7]. In addition, in assay [1], the “aequorin assay intrinsic activity α” value is listed as 0.44. Also, the “β-arrestin 1 assay intrinsic activity α” value in assay [6] came to 0.56. The “β-arrestin 2 assay intrinsic activity α” value in assay [7] amounted to 0.61.
In the case of `CC(=O)N[C@@H](CCCNC(=N)N)C(=O)N[C@@H](Cc1ccc(O)cc1)C(=O)N[C@@H](CCCNC(=N)N)C(=O)N[C@@H](CC(C)C)C(=O)N[C@@H](CCCNC(=N)N)C(=O)N[C@@H](Cc1ccc(O)cc1)C(N)=O` [Compound 36, Ac-Arg-Tyr-Arg-Leu-Arg-Tyr-amide Tris(hydrotrifluoroacetate)], the Ki in assay [2] was 1180 ± 380 nM; in assay [3] it was over 5000 nM; in assay [5], over 5000 nM. In addition, the values for the EC50 in assay [1], in assay [6] and in assay [7] were 303 ± 68 nM, 187 ± 40 nM and 140 ± 45 nM, respectively. The “aequorin assay intrinsic activity α” value in assay [1] was determined as 0.78. In addition, the “β-arrestin 1 assay intrinsic activity α” value in assay [6] was 0.51. Moreover, in assay [7], the “β-arrestin 2 assay intrinsic activity α” value worked out at 0.54.
With “Ac-YRLRY-NH2 [Compound 3, Ac-Tyr-Arg-Leu-Arg-Tyr-amide, reference compound]”, the Ki in assay [2], in assay [3] and in assay [5] was over 5000 nM each time.
